In patent US10294202B2, “Pyrrolidinones as herbicides” (FMC Corporation, priority 2013, dated 2019):

What was measured:
[1] = tested on: giant foxtail; test: Test A pre-/postemergence herbicide test; format: in vivo, Setaria faberii
Outline: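 Visual 0–100 ratings (100 = complete control) made about 10 days after treatment, greenhouse-held plants compared with untreated controls. Treatments: postemergence sprays on one- to two-leaf plants (2–10 cm tall) and preemergence directed soil sprays after planting in loam–sand, chemicals formulated in non-phytotoxic solvent containing surfactant.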

[2] = tested on: sedge, umbrella; test: Test B flooded paddy test; format: in vivo, Cyperus difformis; details: 250 g ai/ha, Flood; scale of 0 to 100 where 0 is no effect and 100 is complete control
Outline: (§1)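 Paddy-water application at a 3 cm flood, young plants having two leaves. Water level maintained; greenhouse, 13–15 days; visual 0–100 control rating.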

[3] = tested on: barnyardgrass; test: Test B flooded paddy test; format: in vivo, Echinochloa crus-galli; details: 250 g ai/ha, Flood; scale of 0 to 100 where 0 is no effect and 100 is complete control
Outline: as §1

[4] = tested on: ryegrass, Italian; test: Test C pre-/postemergence herbicide test; format: in vivo, Lolium multiflorum; details: Preemergence
Outline: (§2)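 Greenhouse plants scored visually against untreated controls 13–15 days after treatment, 0 = no effect, 100 = complete control. Test chemicals in a non-phytotoxic solvent with surfactant were applied either to soil (loam/sand) at planting or to foliage of 1- to 4-leaf plants, 2–18 cm tall.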

[5] = tested on: crabgrass, large; test: Test C pre-/postemergence herbicide test; format: in vivo, Digitaria sanguinalis; details: Preemergence; for Crabgrass, Large plant response rating: 31 g ai/ha
Outline: as §2

[6] = tested on: johnsongrass; test: Test C pre-/postemergence herbicide test; format: in vivo, Sorghum halepense; details: Preemergence
Outline: as §2

[7] = tested on: ragweed; test: Test C pre-/postemergence herbicide test; format: in vivo, Ambrosia elatior; details: Preemergence
Outline: as §2

[8] = tested on: oat, wild; test: Test C pre-/postemergence herbicide test; format: in vivo, Avena fatua; details: Preemergence
Outline: as §2

[9] = tested on: velvetleaf; test: Test C pre-/postemergence herbicide test; format: in vivo, Abutilon theophrasti; details: Preemergence
Outline: as §2

[10] = 125 g ai/ha, scale 0 to 100 (0 no effect, 100 complete control)
[11] = scale 0 to 100 (0 no effect, 100 complete control)
[12] = 250 g ai/ha, scale 0 to 100 (0 no effect, 100 complete control)
[13] = Postemergence, 125 g ai/ha, 0 to 100 scale, 0 no effect, 100 complete control
[14] = Postemergence, 500 g ai/ha, 0 to 100 scale (0 no effect, 100 complete control)
[15] = Preemergence, 125 g ai/ha, visual rating on 0 to 100 scale (0 no effect, 100 complete control)
[16] = preemergence, 500 g ai/ha, 0 to 100 scale

SMILES	Plant response rating, Sedge, Umbrella [2]	Plant response rating, Barnyardgrass [3]	Plant response rating, Ryegrass, Italian ([4]; 62 g ai/ha, scale 0 to 100)	Plant response rating, Ryegrass, Italian [4, 10]	Crabgrass, Large plant response rating [5, 11]	Plant response rating, Crabgrass, Large ([5]; 62 g ai/ha, scale 0 to 100)	Plant response rating, Crabgrass, Large [5, 10]	Plant response rating, Crabgrass, Large [5, 12]	Plant response rating, Johnsongrass ([6]; 62 g ai/ha, scale 0 to 100)	Plant response rating, Johnsongrass [6, 10]	Plant response rating, Ragweed ([7]; 62 g ai/ha, scale 0 to 100)	Plant response rating, Ragweed [7, 10]	Plant response rating, Oat, Wild ([8]; 62 g ai/ha, scale 0 to 100)	Plant response rating, Oat, Wild [8, 10]	Plant response rating, Velvetleaf ([9]; 62 g ai/ha, scale 0 to 100)	Plant response rating, Velvetleaf [9, 10]	Plant response rating, Foxtail, Giant [1, 13]	Plant response rating, Foxtail, Giant [1, 14]	Foxtail, Giant plant response rating [1, 15]	Plant response rating, Foxtail, Giant [1, 16]	also measured
O=C1NCC(c2cc(F)c(F)c(F)c2)C1C(=O)Nc1ccccc1C(F)(F)F (racemic) [Compound 33]	0	0	0	0	95	98	100	100	0	0	0	0	0	20	10	10					Plant response rating, Foxtail, Giant ([1]; Postemergence, 1000 g ai/ha, 0 to 100 scale (0 no effect, 100 complete control)): 90; Plant response rating, Foxtail, Giant ([1]; Preemergence, 1000 g ai/ha, visual rating on 0 to 100 scale (0 no effect, 100 complete control), approx. 10 days): 90
O=C1NCC(c2ccc(F)c(Cl)c2)C1C(=O)Nc1cccc(F)c1F (stereo not drawn) [Compound 59]	60	40	0	0	85	85	90	100	0	0	0	0	0	0	0	0	80	80	80	90	
O=C1NCC(c2cccc(Br)c2)C1C(=O)Nc1cccc(F)c1F (stereo not drawn) [Compound 64]	40	0	0	0	85	90	95	95	40	75	0	30	10	10	10	10	70	80	80	90	
O=C1NCC(c2ccc(Cl)c(F)c2)C1C(=O)Nc1ccccc1F (stereo not drawn) [Compound 53]	20	0	0	0	80	85	90	90	0	0	10	10	0	0	0	0	30	80	90	90	
